Test results: patent US20250073311A1, “DOSAGE REGIME” (ZEALAND PHARMA A/S, priority 2021, published 2025)
“And” between values parts separate entries of the source, which are not always exact repeats. Identical values can stand only once. Numbered stars: 1 amine (or outer) side, 2 acyl side, 3 side chain; on linkers, the order of the positions; unused ones are H or OH. Square brackets hold non-standard residues; d marks the D form. Side chains are listed from the residue outwards. Peptide text beside a SMILES is read from it. * marks the point of attachment. C18 diacid = O=C(O)CCCCCCCCCCCCCCCCC(=O)*; γGlu = O=C(O)[C@H](CCC(=O)[*:2])N[*:1]; Aib = CC(C)(N)C(=O)O

What was measured:
Type in all cases: in vivo
healthy human subjects [1] = experiment: Multiple ascending dose Phase 1b trial, adverse events; conditions: 7 subjects
Protocol: A multiple ascending dose Phase 1b trial was conducted for Cpd. 18 investigating the safety of multiple subcutaneous injections of various ascending doses in healthy human subjects. The trial was a Randomized, Double-blind, Placebo-controlled, Multi Ascending Dose Trial assessing Safety, Tolerability, Pharmacokinetics and Pharmacodynamics of Multiple Subcutaneous Dose of Cpd. 18 in Healthy human Subjects.
Four cohorts were dosed with four once weekly subcutaneous administrations. In each cohort, consisting of 10 subjects each, subjects were randomized to either placebo (n=3) or to the following active multiple ascending dose levels (n=7): 4 weekly dose injections of 1.0 mg; 4 weekly dose injections of 2.25 mg; 4 weekly dose injections of 3.5 mg and 1 weekly dose injections of 3.5 mg followed by 3 weekly dose injections of 6.0 mg.
Adverse events (AE) were captured by asking open ended and non-leading questions according to the following wording in the protocol:
(§1) • All events meeting the definition of an AE must be collected and reported from the first trial-related activity after the subject has signed the informed consent and until the end of the post-treatment follow-up period. At each contact with the site (Visit or telephone) the subject must be asked about AEs. All AEs, either observed by the Investigator or reported by the subject, must be recorded by the Investigator and evaluated. • The Investigator should record the diagnosis, if possible. If no diagnosis can be made the Investigator should record each sign and symptom as individual AEs. • All AEs must be recorded by the Investigator. One single Adverse Event Form must be used per AE from start to resolution. For Serious Adverse Events (SAE), the Serious Adverse Event Form must also be completed.”
The safety data (incidence/number of subjects) for subjects dosed 4×1.0 mg to 1×3.5 mg plus 3×6.0 mg as well as placebo is shown in Table 10 below.

healthy human subjects [2] = experiment: Single ascending dose Phase 1a trial, adverse events; conditions: 6 subjects
Protocol: A single ascending dose Phase 1a trial was conducted for Cpd. 18 investigating the safety of single subcutaneous injections of doses ranging from 0.02 mg to 7.5 mg in healthy human subjects.
The phase 1a study was a First in Human, Randomized, Double-blind, Placebo-controlled, Single Ascending Dose Trial assessing Safety, Tolerability, Pharmacokinetics and Pharmacodynamics of a Single Subcutaneous Dose of Cpd. 18 in Healthy human Subjects.
Eight cohorts (dose levels: 0.02, 0.07, 0.2, 0.6, 1.5, 3.0, 6.0 and 7.5 mg) were given in this first in human trial. Eight subjects were allocated to the following ascending dose levels: 0.02, 0.07, 0.2, 0.6, 1.5, 3.0, 6.0 and 7.5 mg.
Adverse events (AE) were captured by asking open ended and nonleading questions according to the following wording in the protocol:
as §1

healthy human subjects [3] = experiment: Standard meal test (lunch and dinner), Phase 1b trial
Description: (§2) Reduction in appetite is reflected in the reduction in food intake measured by mixed meal test for breakfast (Table 11) and by measuring caloric intake at standard meals for lunch and dinner (Table 12).
Pre-defined lunch and dinner meals were served at baseline (on Day -1) and after 4th dose (Day 23). Consumption was supervised and leftovers were weighed.

healthy human subjects [4] = experiment: Mixed meal test (breakfast), Phase 1b trial
Protocol: as §2
The Mixed Meal Test (MMT) was performed at baseline, at 24 hours, after the first dosing (Day 2) and after the fourth dosing (Day 23). The meal consisted of a fixed nutrient content and the exact initial amount of nutrients were weighed by kitchen staff on a lab scale using the method of weighed intake. Consumption was supervised and leftovers were weighed and recorded as percentage of meal. Adjustment of leftovers on Day 2 will be performed for Day 23 and differences in weight will be calculated in carbohydrates.

[5] = 1 × 3.5 mg plus 3 × 6.0 mg weekly s.c.

## CC[C@H](C)[C@H](NC(=O)[C@H](Cc1ccccc1)NC(=O)[C@H](CC(=O)O)NC(=O)[C@H](CCCNC(=N)N)NC(=O)[C@H](C)NC(=O)[C@H](C)NC(=O)[C@H](CCC(N)=O)NC(=O)[C@H](CCCCNC(=O)CC[C@H](NC(=O)CCCCCCCCCCCCCCCCC(=O)O)C(=O)O)NC(=O)[C@H](CC(=O)O)NC(=O)[C@H](CC(C)C)NC(=O)[C@@H](NC(=O)[C@@H](NC(=O)[C@H](C)NC(=O)[C@H](CC(C)C)NC(=O)[C@H](CCC(=O)O)NC(=O)[C@H](CO)NC(=O)[C@@H](NC(=O)[C@H](Cc1ccccc1)NC(=O)[C@H](CO)NC(=O)CNC(=O)[C@H](CCC(=O)O)NC(=O)C(C)(C)NC(=O)[C@@H](N)Cc1c[nH]cn1)[C@@H](C)O)[C@@H](C)O)[C@@H](C)CC)C(=O)N[C@@H](C)C(=O)N[C@@H](Cc1c[nH]c2ccccc12)C(=O)N[C@@H](CC(C)C)C(=O)N[C@H](C(=O)N[C@@H](CCC(N)=O)C(=O)N[C@@H](Cc1c[nH]cn1)C(=O)N[C@@H](CCCCN)C(=O)N[C@H](C(=O)N[C@H](C(=O)N[C@@H](CC(=O)O)C(=O)O)[C@@H](C)O)[C@@H](C)CC)[C@@H](C)CC [Compound 18] (H-H[Aib]EGSFTSELATILDK([γGlu-C18 diacid])QAARDFIAWLIQHKITD-OH)
Healthy human subjects [1]; [5]
  Subjects experiencing decreased appetite: 6/7 and 6
  Subjects experiencing nausea: 4
  Subjects experiencing vomiting: 3
Healthy human subjects [1]; 4 weekly s.c. doses of 1.0 mg
  Subjects experiencing decreased appetite: 0
  Subjects experiencing nausea: 1
  Subjects experiencing vomiting: 0
Healthy human subjects [1]; 4 weekly s.c. doses of 2.25 mg
  Subjects experiencing decreased appetite: 3/7 and 3
  Subjects experiencing nausea: 1
  Subjects experiencing vomiting: 0
Healthy human subjects [1]; 4 weekly s.c. doses of 3.5 mg
  Subjects experiencing decreased appetite: 2/7 and 2
  Subjects experiencing nausea: 0
  Subjects experiencing vomiting: 0
Healthy human subjects [2]; single s.c. dose 0.02 mg
  Subjects experiencing decreased appetite: 0
  Subjects experiencing nausea: 2
  Subjects experiencing vomiting: 0
Healthy human subjects [2]; single s.c. dose 0.07 mg
  Subjects experiencing decreased appetite: 1
  Subjects experiencing nausea: 0
  Subjects experiencing vomiting: 0
Healthy human subjects [2]; single s.c. dose 0.2 mg
  Subjects experiencing decreased appetite: 0
  Subjects experiencing nausea: 1
  Subjects experiencing vomiting: 0
Healthy human subjects [2]; single s.c. dose 0.6 mg
  Subjects experiencing decreased appetite: 0
  Subjects experiencing nausea: 0
  Subjects experiencing vomiting: 0
Healthy human subjects [2]; single s.c. dose 1.5 mg
  Subjects experiencing decreased appetite: 3/6 and 3
  Subjects experiencing nausea: 0
  Subjects experiencing vomiting: 0
Healthy human subjects [2]; single s.c. dose 3.0 mg
  Subjects experiencing decreased appetite: 2
  Subjects experiencing nausea: 3
  Subjects experiencing vomiting: 2
Healthy human subjects [2]; single s.c. dose 6.0 mg
  Subjects experiencing decreased appetite: 3
  Subjects experiencing nausea: 4
  Subjects experiencing vomiting: 5
Healthy human subjects [2]; single s.c. dose 7.5 mg
  Subjects experiencing nausea: 2
  Subjects experiencing vomiting: 2
Healthy human subjects [3]; Dinner, After 4th dose (Day 23), cohort 1.0 mg weekly
  Mean food consumption: 682 kcal
Healthy human subjects [3]; Dinner, After 4th dose (Day 23), cohort 2.25 mg weekly
  Mean food consumption: 585 kcal
Healthy human subjects [3]; Dinner, After 4th dose (Day 23), cohort 3.5 mg weekly
  Mean food consumption: 594 kcal
Healthy human subjects [3]; Dinner, After 4th dose (Day 23), cohort 3.5/6.0 mg weekly
  Mean food consumption: 423 kcal
Healthy human subjects [3]; Dinner, Baseline (Day -1), cohort 1.0 mg
  Mean food consumption: 694 kcal
Healthy human subjects [3]; Dinner, Baseline (Day -1), cohort 2.25 mg
  Mean food consumption: 679 kcal
Healthy human subjects [3]; Dinner, Baseline (Day -1), cohort 3.5 mg
  Mean food consumption: 695 kcal
Healthy human subjects [3]; Dinner, Baseline (Day -1), cohort 3.5/6.0 mg
  Mean food consumption: 694 kcal
Healthy human subjects [3]; Lunch, After 4th dose (Day 23), cohort 1.0 mg weekly
  Mean food consumption: 705 kcal
Healthy human subjects [3]; Lunch, After 4th dose (Day 23), cohort 2.25 mg weekly
  Mean food consumption: 649 kcal
Healthy human subjects [3]; Lunch, After 4th dose (Day 23), cohort 3.5 mg weekly
  Mean food consumption: 647 kcal
Healthy human subjects [3]; Lunch, After 4th dose (Day 23), cohort 3.5/6.0 mg weekly
  Mean food consumption: 403 kcal
Healthy human subjects [3]; Lunch, Baseline (Day -1), cohort 1.0 mg
  Mean food consumption: 701 kcal
Healthy human subjects [3]; Lunch, Baseline (Day -1), cohort 2.25 mg
  Mean food consumption: 638 kcal
Healthy human subjects [3]; Lunch, Baseline (Day -1), cohort 3.5 mg
  Mean food consumption: 706 kcal
Healthy human subjects [3]; Lunch, Baseline (Day -1), cohort 3.5/6.0 mg
  Mean food consumption: 671 kcal
Healthy human subjects [4]; After 1st dose (Day 2), cohort 1.0 mg
  Mean food consumption: 99.0%
Healthy human subjects [4]; After 1st dose (Day 2), cohort 2.25 mg
  Mean food consumption: 95.4%
Healthy human subjects [4]; After 1st dose (Day 2), cohort 3.5 mg
  Mean food consumption: 99.2% and 96.2%
Healthy human subjects [4]; After 1st dose (Day 2), cohort 3.5/6.0 mg
  Mean food consumption: 87.5%
Healthy human subjects [4]; After 4th dose (Day 23), cohort 1.0 mg weekly
  Mean food consumption: 98.6%
Healthy human subjects [4]; After 4th dose (Day 23), cohort 2.25 mg weekly
  Mean food consumption: 95.8%
Healthy human subjects [4]; After 4th dose (Day 23), cohort 3.5 mg weekly
  Mean food consumption: 93.2%
Healthy human subjects [4]; After 4th dose (Day 23), cohort 3.5/6.0 mg weekly
  Mean food consumption: 62.5%
Healthy human subjects [4]; Baseline, cohort 1.0 mg
  Mean food consumption: 99.2%
Healthy human subjects [4]; Baseline, cohort 2.25 mg
  Mean food consumption: 100%
Healthy human subjects [4]; Baseline, cohort 3.5 mg
  Mean food consumption: 100%
Healthy human subjects [4]; Baseline, cohort 3.5/6.0 mg
  Mean food consumption: 95.8%
